Laboratory results reported in patent US20170209544A1, “A PEPTIDE THERAPY TO COUNTERACT INSULIN RESISTANCE AND TYPE 2 DIABETES” (The Regents of the University of California, priority 2014, published 2017).
Where no end group is shown, it is not given here.

Tests used:
3T3-L1 adipocytes = test: Insulin-stimulated glucose uptake in adipocytes; format: cell-based; settings: 3T3-L1 adipocytes in culture; without any PST variant present
From the text: Mutant PST peptides were synthesized and screened. The peptides were synthesized as various deletion peptides of PST. Native PST (SEQ ID NO. 2) inhibited insulin-stimulated glucose uptake and leptin production in adipocytes. The inventors tested various deletion mutant PST peptides whether one or more of them would compete and prevent native PST action in adipocytes.

WT-NCD mice = test: IP-ITT in WT-NCD mice; format: in vivo; settings: chronic PST 5 μg/g BW for 15 days; WT mice on NCD
Experimental: (§1) For glucose tolerance tests (GTT), glucose (1 mg/g) was injected intraperitoneally (IP-GTT) (at time zero) or gavaged orally (O-GTT) after a 12-hours fast. Tail-vein glucose levels were measured at −30, 0, 15, 30, 60, 90, and 120 minutes. For insulin tolerance tests (ITT), insulin (0.4 mU/g) was injected intraperitoneally and blood glucose levels were measured at the indicated time points. Chronic PST (5 μg/g/day) and PSTv1 (10 μg/day) treatments were carried out for 15 days. For acute treatment, either peptides or saline were injected 30 minutes before glucose or insulin injection. Synergy Software Kaleidagraph Version 4.0 calculated the area under the curve (AUC) for each line curve.
Treatment with the PST variant PSTv1 improves, whereas PST worsens, glucose tolerance and insulin sensitivity in WT-DIO and WT-NCD mice. WT-DIO mice were treated with saline or PSTv1 (10 μg/g BW/day) for 15 days. Weight-matched DIO mice were fasted for 12 hrs and subjected to IP-GTT (2-way ANOVA: Treatment, p<0.0001; Time, p<0.0001; Interaction, p=0.17, n=6, as shown in FIG. 13A) and IP-ITT (2-way ANOVA: Treatment, p<0.0001; Time, p<0.0001; Interaction, p=0.62 n=9, as shown in FIG. 13C) and AUCs for glucose excursions were determined (as shown in FIGS. 13B and 13D). […]

KO-DIO mice [1] = test: GTT, ITT and fasting insulin in PST-treated KO-DIO mice; format: in vivo
Experimental: as §1
Despite increased obesity, KO-DIO mice maintained insulin sensitivity as shown by GTT and ITT. […] WT-DIO and KO-DIO male mice with mixed genetic background were fasted for 12 hrs and subjected to IP-GTT (2-way ANOVA: Strain, p<0.0001; Time, p<0.0001; Interaction, p<0.045; n=8, as shown in FIGS. 12A and 12B), oral GTT (2-way ANOVA: Strain, p<0.0001; Time, p<0.0001; Interaction, p=0.09; n=8, as shown in FIGS. 12C and 12D), or IP-ITT (2-way ANOVA: Treatment (WT), p<0.0001; Time, p<0.0001; Interaction, p=0.56; Treatment (KO), p<0.0001; Time, p<0.0001; Interaction, 0.43; n=9, as shown in FIGS. 12E and 12F), and AUC for glucose excursions were determined (see FIGS. 12B, 12D and 12F). […] and the corresponding AUC were shown in FIGS. 12E and 12F, respectively. Body weight-matched WT-DIO and KO-DIO mice were fasted for 12 hrs and subjected to clamp studies to determine glucose infusion rate (GIR, shown in FIG. 12G), glucose disposal rate (GDR, shown in FIG. 12H), (I) insulin-stimulated GDR (IS-GDR, shown in FIG. 12I) and % suppression of hepatic glucose production (HGP) (n=8-9, shown in FIG. 12J). Fasting (12 hrs) basal levels of plasma insulin before (FIG. 12K) and after (FIG. 12L) chronic PST treatment (5 μg/g BW/day, IP for 15 days) (n=6) were shown. “&” Indicates comparison between WT-DIO+Sal and KO-DIO+Sal, “$” indicates comparison between WT-DIO+Sal and WT-DIO+PST, “#” indicates comparison between KO-DIO+Sal and KO-DIO+PST, and “*” indicates comparison between the indicated groups. “*, $ or #”: P<0.05, “**, &&, ## or $$”: p<0.01, “***, ### or &&&”: p<0.001.

GRP78 = GRP78 (Homo sapiens, UniProt P11021); test: GRP78 ATPase enzymatic activity; format: biochemical
KO-DIO mice [2] = test: Adipose tissue inflammatory genes and plasma cytokines in PST-treated KO-DIO mice; format: in vivo; settings: PST 5 μg/g BW for 15 days
Experimental: RNA from tissues was extracted using a kit (RNeasy Plus, Qiagen, Valencia, Calif.). After DNase digestion, 200 ng of RNA was transcribed into cDNA in a 20-μl reaction using a High Capacity cDNA Archive kit and this cDNA was amplified. PCR (25-μl reactions) contained 5 μl of cDNA, 2×SYBR Green PCR Master Mix, and 400 nM of each primer. Differences in the threshold cycle number (ΔCt) between the target gene, the housekeeping gene Gapdh and the ribosomal protein gene 36B4 were used to calculate differences in expression. Primer sequences are provided below.
Plasma cytokine concentrations were determined by a multiplex system from Quansys Biosciences (Logan, Utah).
As shown in FIGS. 17A-17H, PST modulates adipose tissue inflammation. A group of KO-DIO mice were injected with saline or PST (5 μg/g BW) for 15 days. Weight-matched saline-treated WT-DIO, KO-DIO and PST-treated KO-DIO mice were fasted for 12 hr and sacrificed. Blood was collected to measure plasma cytokine levels. Tissues were subjected to RNA extraction, cDNA preparation and RT-qPCR analysis for cytokines (FIG. 17A, n=6), pro-inflammatory genes (FIG. 17B: Cd11c & IL-12p40, n=6; FIG. 17C: iNos, n=6), and anti-inflammatory genes (FIG. 17D: Arg-1 & IL-10, n=6; FIG. 17E: Mgl-1, Mgl-2 and Ym1, n=6). “*” Denotes comparison between the indicated groups. “*”: P<0.05, “**”: p<0.01, “***”: p<0.001.

[3] = chronic PST 5 μg/g BW/day IP for 15 days, over WT-DIO levels

Sequence of GRP78 (P11021 19-654, species assumed): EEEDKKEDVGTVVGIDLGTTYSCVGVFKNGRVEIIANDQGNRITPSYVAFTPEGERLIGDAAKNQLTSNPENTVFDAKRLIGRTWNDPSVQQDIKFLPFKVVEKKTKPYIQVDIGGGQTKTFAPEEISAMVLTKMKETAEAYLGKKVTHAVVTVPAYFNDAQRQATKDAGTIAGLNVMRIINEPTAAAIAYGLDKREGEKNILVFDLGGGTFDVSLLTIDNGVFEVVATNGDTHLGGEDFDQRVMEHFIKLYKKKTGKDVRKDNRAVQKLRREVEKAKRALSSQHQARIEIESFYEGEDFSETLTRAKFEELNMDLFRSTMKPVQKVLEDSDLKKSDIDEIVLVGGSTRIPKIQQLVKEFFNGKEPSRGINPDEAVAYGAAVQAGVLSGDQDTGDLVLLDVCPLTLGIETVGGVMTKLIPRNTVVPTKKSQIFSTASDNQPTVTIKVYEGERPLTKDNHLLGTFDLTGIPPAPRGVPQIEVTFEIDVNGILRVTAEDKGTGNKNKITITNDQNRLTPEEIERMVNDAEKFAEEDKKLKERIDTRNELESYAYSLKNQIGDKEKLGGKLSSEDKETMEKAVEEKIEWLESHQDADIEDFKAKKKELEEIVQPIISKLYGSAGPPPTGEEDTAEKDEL

## PEGKGEQEHSQQKEEEEEMAVVPQGLFRG-amide (PEGKGEQEHSQQKEEEEEMAVVPQGLFRG-NH2) [PST, Wild-type human pancreastatin, a chromogranin A derived peptide]
3T3-L1 adipocytes
  inhibition of insulin-stimulated glucose uptake: 35%
WT-NCD mice
  insulin sensitivity (IP-ITT): induced insulin resistance
KO-DIO mice [1]; PST for 5 days, Chga-KO mice on high fat diet
  blood glucose: led to hyperglycemia
KO-DIO mice [1]; chronic PST 5 μg/g BW for 15 days
  insulin sensitivity phenotype on HFD: abolished
KO-DIO mice [1]; [3]
  fasting glucose: raised
  fasting plasma insulin levels: raised
GRP78
  GRP78's ATPase enzymatic activity: inhibits
KO-DIO mice [2]
  plasma levels of IL-12p70 and Mcp-1: raised
  plasma levels of Ifnγ, IL-6, Mip-1α, Kc and Tnfα: had no effect
KO-DIO mice [2]; adipose tissue
  expression of Arg-1 and IL-10: significantly reduced
  expression of Mgl-1 or Mgl-2: had no effect
  expression of Ym-1: trend toward downregulating
  expression of pro-inflammatory genes IL-1β, Tnfα, IL-6, Mcp-1 and iNos: increased expression
